# Read-outs that look alike come from different tables or passages of the source.
# What was measured:
# RARs = assay: RAR activation; format: cell-based
# RXRs = assay: RXR activation; format: cell-based
# [1] = published data (N = 525); cited from earlier work
# [2] = oral, cited from earlier work
# [3] = cited from earlier work
# [4] = published data (N = 525); cited from earlier work; remark: listed apart in the source
# [5] = Food effect (high-fat meal vs 8-10 hour fast) on pharmacokinetics of tazarotenic acid after oral tazarotene in normal healthy subjects; format: in vivo, human; conditions: 6.3 mg oral tazarotene, fed vs fasted
# From the text: For the purposes of this application, the bioavailability of a drug may be based on the human pharmokinetic parameters of maximum blood concentration (Cmax) and Area under the blood concentration-time curve (AUC).
# [6] = Patient with severe psoriasis taking Ortho-Novum treated with tazarotene; format: in vivo, human; conditions: female, human, in vivo, tazarotene 6 mg per day, mean ±SD
# From the text: The patient presents symptoms of severe psoriasis. The symptoms include lesions approximately 4 to 10 centimeters across appearing as raised patches of wine red skin many of which are covered in silvery white scales. The lesions are mostly dry and rough, and quite often noticeably warm to the touch. The lesions are present on the elbows, knees, scalp, and groin area. The patient experiences intense burning and itching associated with the lesions.
# The patient is currently taking Ortho-Novum® for contraception.
# Tazarotene at a dose of 6 mg per day is prescribed.
# RAR-α = target: T1, RAR-α (Homo sapiens, UniProt P10276); assay: RAR-α activity; format: cell-based
# T1 sequence (P10276 1-462): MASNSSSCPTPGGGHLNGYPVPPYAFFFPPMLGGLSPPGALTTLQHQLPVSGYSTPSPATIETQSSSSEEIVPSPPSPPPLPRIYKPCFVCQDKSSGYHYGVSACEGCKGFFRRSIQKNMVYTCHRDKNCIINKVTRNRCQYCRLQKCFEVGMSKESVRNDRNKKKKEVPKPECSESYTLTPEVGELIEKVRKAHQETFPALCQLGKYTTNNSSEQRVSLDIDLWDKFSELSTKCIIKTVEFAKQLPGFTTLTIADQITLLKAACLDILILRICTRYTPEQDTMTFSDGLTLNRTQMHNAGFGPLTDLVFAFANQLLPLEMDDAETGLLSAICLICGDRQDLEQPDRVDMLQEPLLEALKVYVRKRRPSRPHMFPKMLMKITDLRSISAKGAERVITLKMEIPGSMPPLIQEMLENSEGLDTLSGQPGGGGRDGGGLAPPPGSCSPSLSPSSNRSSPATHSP
structure (smiles),measurement,setting,value
CC1(C)CC[S+]([O-])c2ccc(C#Cc3ccc(C(=O)O)cn3)cc21 (centres unmarked) [AGN 190844],activation of the RARs,RARs,does not activate either the RARs or the RXRs
same,activation of the RXRs,RXRs,does not activate either the RARs or the RXRs
COc1cc(C)c(/C=C/C(C)=C/C=C/C(C)=C/C(=O)O)c(C)c1C [acitretin],Alopecia,[1],319 (60.8) number (%) of patients
same,Arthralgia,[1],102 (19.4) number (%) of patients
same,Atrophy of skin,[1],64 (12.2) number (%) of patients
same,Back pain,[1],41 (7.8) number (%) of patients
same,Cheilitis,[1],429 (81.7) number (%) of patients
same,Dry Skin,[1],174 (33.1) number (%) of patients
same,Dry mouth/Oral dryness,[1],76 (14.5) number (%) of patients
same,Epistaxis,[1],61 (11.6) number (%) of patients
same,Erythematous rash/Erythema,[1],57 (10.9) number (%) of patients
same,Hyperesthesia,[1],66 (12.6) number (%) of patients
same,Nail Disorder,[1],170 (32.4) number (%) of patients
same,Paresthesia,[1],56 (10.7) number (%) of patients
same,Paronychia/Nail disorder,[1],66 (12.6) number (%) of patients
same,Pruritus,[1],157 (29.9) number (%) of patients
same,Rhinitis,[1],153 (29.1) number (%) of patients
same,Rigors/Chills,[1],67 (12.8) number (%) of patients
same,Skin peeling/Desquamation,[1],345 (65.7) number (%) of patients
same,Sticky skin/Skin disorder,[1],129 (24.6) number (%) of patients
same,Xerophthalmia/Eye disorder,[1],112 (21.3) number (%) of patients
same,impact of food on bioavailability,[2],bioavailability is increased in the presence of food
same,effect on contraceptive effect of microdosed progestin “minipill” preparations,[3]; in vivo,interferes with the contraceptive effect
C=C(c1ccc(C(=O)O)cc1)c1cc2c(cc1C)C(C)(C)CCC2(C)C [bexarotene],impact of food on bioavailability,[2],bioavailability is increased in the presence of food
same,effect on plasma concentration of tamoxifen,[3]; coadministration with tamoxifen,reduced plasma concentration of tamoxifen
CC1=C(/C=C/C(C)=C/C=C/C(C)=C\C(=O)O)C(C)(C)CCC1 [isotretinoin],Cheilitis,[4],472 (90.2) number (%) of patients
same,Conjunctivitis,[4],201 (38.4) number (%) of patients
same,Desquamation central face/Desquamation,[4],187 (35.8) number (%) of patients
same,Dry Skin,[4],172 (32.9) number (%) of patients
same,Dry nose,[4],136 (26.0) number (%) of patients
same,Epistaxis,[4],121 (23.1) number (%) of patients
same,Fingertip peeling/Desquamation,[4],63 (12.0) number (%) of patients
same,Headache,[4],44 (8.4) number (%) of patients
same,Irritation of eyes,[4],85 (16.3) number (%) of patients
same,Pruritus,[4],127 (24.3) number (%) of patients
same,Red Scaly face/Desquamation,[4],54 (10.3) number (%) of patients
same,Skin fragility/Skin disorder,[4],164 (31.4) number (%) of patients
same,total dose needed to reach the same peak blood concentration in the fasted state as following a high fat meal,[2]; fasted vs high fat meal,more than doubled
same,impact of food on bioavailability,[2],bioavailability is increased in the presence of food
same,effect on blood concentrations of ethinyl estradiol and norethindrone,[3]; coadministered contraceptive tablets,decreases blood concentrations
CC1(C)CCSc2ccc(C#Cc3ccc(C(=O)O)cn3)cc21 [tazarotenic acid],90% confidence intervals (CI) of AUC ratios (test/reference),[5],completely within the 80-125% boundary
same,Effect of high-fat meal on bioavailability or pharmacokinetics of tazarotenic acid,[5]; single and multiple dose,does not substantially affect
same,AUC(0-t),[6]; read-out: AUC0-24 for tazarotenic acid,379 ± 78 ng·h/mL
same,Cmax,[6]; read-out: Cmax for tazarotenic acid,111 ± 37 ng/mL
same,receptor specificity and selectivity,"RARs; RARs, RAR-β and RAR-γ",specificity for the RARs and selectivity for RAR-β and RAR-γ
same,activation of the RXRs,RXRs,does not activate the RXRs
same,RAR-α activity,RAR-α,minimal RAR-α activity

# — US20050026950A1, “Methods of therapeutic treatment using retinoids to achieve consistent bioavailability” (Allergan, Inc., priority 2003, published 2005)
